Experimental data taken from PubChem BioAssay (NCI).
Several values for one entry are separate records, joined by “and”; a condition that tells them apart may be missing. Identical values can stand only once.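 96-well plates; 48 h exposure; 5 concentrations. Endpoints by linear interpolation between flanking doses. Not reached: highest tested concentration assigned. GI50 = concentration required for 50% inhibition of growth. At the TGI there is no net growth.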

Assays:
Assay in all cases: inhibition of tumour cell growth, NCI panel, 48 h
[1] = test system: UO-31 renal
[2] = test system: MDA-MB-435
[3] = test system: NCI/ADR-RES ovarian
[4] = test system: CAKI-1 renal
[5] = test system: SF-539 CNS
[6] = test system: ACHN renal
[7] = test system: HL-60(TB) leukemia
[8] = test system: SK-MEL-5 melanoma
[9] = test system: IGROV1 ovarian
[10] = test system: OVCAR-3 ovarian

Structure (SMILES)	GI50 [1]	TGI [1]	GI50 [2]	TGI [2]	GI50 [3] [µM]	TGI [3] [µM]	GI50 [4] [µM]	TGI [4] [µM]	GI50 [5] [µM]	TGI [5] [µM]	GI50 [6] [µM]	TGI [6]	GI50 [7]	TGI [7] [µM]	GI50 [8] [µM]	TGI [8]	GI50 [9]	TGI [9]	GI50 [10]	TGI [10]
C#CC#CC#CC#CC#CC#CC#CC#CCC1OC[C@H](COC(=O)O[C@@H](C(=O)O[C@H]2C[C@@]3(O)[C@@H](OC(=O)c4ccccc4)[C@@H]4[C@]5(OC(C)=O)CO[C@@H]5C[C@H](O)[C@@]4(C)C(=O)[C@H](OC(C)=O)C(=C2C)C3(C)C)[C@@H](NC(=O)c2ccccc2)c2ccccc2)O1 (stereo partly specified)	> 33.3 µM	> 33.3 µM	0.044 µM	0.109 µM	> 33.3	> 33.3	1.4	> 33.3	0.298	4.68	> 33.3	> 33.3 µM	0.172 µM	> 10.9	1.47	> 33.3 µM	0.424 µM	> 33.3 µM	0.17 µM	> 33.3 µM
CC(C)c1ccc(O)c(=O)cc1	6.31 µM	35.7 µM and 71.7 µM	19.6 µM	–	3.64	59.3	8.54	> 70.1	7.69	17	4.46	> 68.5 µM	2.51 µM	> 24.5	11.1	35.2 µM and 41.4 µM	7.48 µM	> 100 µM	2.03 µM	> 100 µM and 18.3 µM
CN(C)CCCC(=O)Nc1ccc(Cn2nnc3c2C(=O)c2nnn(Cc4ccc(NC(=O)CCCN(C)C)cc4)c2C3=O)cc1	> 100 µM	> 100 µM	1.82 µM	3.26 µM	> 100	> 100	> 100	> 100	2.34	5.6	38.9	> 100 µM	1.75 µM	5.17	1.48	2.84 µM	2.32 µM	5.74 µM	2.38 µM	6.02 µM
CCOC(=O)c1cnc2c(cnn2CC)c1NN=C(C)C	23.2 µM	> 100 µM	78.2 µM	> 100 µM	38	> 100	22.9	> 100	74.9	> 100	24	> 100 µM	59 µM	> 100	33.1	> 100 µM	38.3 µM	> 100 µM	39.5 µM	> 100 µM
O=C1C=C(Nc2nc(C(=O)O)cc(=O)[nH]2)c2ccccc2C1=O	–	> 100 µM	–	> 100 µM	–	> 100	–	> 100	–	> 100	–	> 100 µM	–	> 100	–	> 100 µM	–	> 100 µM	–	> 100 µM
CC12CCC(O)CC1CCC1C2CCC2(C)C(C3=CC(=O)OC3)CCC12 (stereo unspecified)	> 100 µM	> 100 µM	> 100 µM	> 100 µM	27	> 100	> 55.7	> 100	21.9	> 100	26.4	> 91.3 µM	> 100 µM	> 100	> 100	> 100 µM	20.5 µM	> 71 µM	> 86.6 µM	> 100 µM
NCC(=O)CCC(=O)O	> 100 µM	> 100 µM	> 100 µM	> 100 µM	> 100	> 100	> 100	> 100	> 100	> 100	> 100	> 100 µM	> 100 µM	> 100	> 100	> 100 µM	> 100 µM	> 100 µM	> 100 µM	> 100 µM
COc1cc2c3c(n(CCCNCCN4CCOCC4)c(=O)c2cc1OC)-c1cc2c(cc1C3=O)OCO2	5.98 µM and 2.19 µM	15.2 µM and > 100 µM	1.93 µM and 4.36 µM	10.3 µM and 19.2 µM	0.11	0.69	2.61	19.4	1.08	3.88	–	0.658 µM and 2.62 µM	0.321 µM and 2.7 µM	–	–	7.74 µM and 20.2 µM	6.92 µM and 2.12 µM	23.5 µM and > 100 µM	0.528 µM and 0.6 µM	1.4 µM and 3.27 µM
CC(C)[C@@H](CS(=O)(=O)C(C)C)N1C(=O)[C@@](C)(CC(=O)O)C[C@H](c2cccc(Cl)c2)[C@H]1c1ccc(Cl)cc1	0.303 µM	7.14 µM	15.3 µM	45.5 µM	24.7	> 100	0.378	32.8	14	35.9	0.394	15.4 µM	17.7 µM	46.8	1.96	17.2 µM	8.61 µM	> 85.1 µM	12.4 µM	33 µM
COc1ccc(C(=O)N/N=C/c2ccc(O)cc2O)cc1Nc1ccnc(C(F)(F)F)c1	2.64 µM	> 63.8 µM	0.507 µM	21.1 µM	11.9	> 100	0.984	15.2	0.404	7.78	1.54	35.8 µM	0.291 µM	0.923	0.534	5.03 µM	0.575 µM	23.4 µM	0.317 µM	17.8 µM
Cc1[nH]nc(C(=O)Nc2n[nH]c3ccccc23)c1[N+](=O)[O-]	> 100 µM	> 100 µM	> 100 µM	> 100 µM	> 100	> 100	> 100	> 100	> 100	> 100	> 100	> 100 µM	> 63 µM	> 96.1	> 60.1	> 100 µM	> 100 µM	> 100 µM	> 100 µM	> 100 µM
CCc1nc(N)nc(N)c1-c1ccc(Cl)c(N=NN(C)C)c1	–	> 70.4 µM	–	> 92.1 µM	–	> 100	–	> 96.9	–	56.9	–	> 89.7 µM	–	> 52.9	–	50.2 µM	–	> 95.5 µM	–	> 91.5 µM
O=C1C(=O)c2c(nc3ncccn23)-c2ccccc21	0.187 µM	0.405 µM	0.114 µM	0.254 µM	0.301	0.962	0.64	1.9	0.188	0.388	0.174	0.373 µM	0.247 µM	0.64	0.167	0.304 µM	0.245 µM	0.566 µM	0.204 µM	0.5 µM
c1ccc2c(c1)ccc1c3ccccc3ccc21	> 50 µM	> 50 µM	> 50 µM	> 50 µM	> 50	> 50	> 50	> 50	> 50	> 50	> 50	> 50 µM	> 50 µM	> 50	> 50	> 50 µM	> 50 µM	> 50 µM	> 50 µM	> 50 µM
Clc1ccc(-c2cn(-c3ccccc3)c(-c3ccccc3)n2)c(Cl)c1	10.2 µM	> 50 µM	1.69 µM	10.1 µM	3.51	> 44.9	1.2	4.4	2.2	> 50	2.22	> 50 µM	9.74 µM	> 50	48.5	> 50 µM	2.92 µM	> 44.8 µM	0.861 µM	1.73 µM
COc1ccc2c(c1)C(=O)c1c-2n(CCCCl)c(=O)c2cc(N(C)C)ccc12	> 100 µM	> 100 µM	81.8 µM	> 100 µM	> 100	> 100	94.6	> 100	12.4	47.4	36	> 100 µM	> 100 µM	> 100	11.2	34.6 µM	33 µM	> 100 µM	> 100 µM	> 100 µM
O=C(Nc1ccccc1F)c1ccc(NC2=C(Cl)C(=O)N(Cc3ccccc3)C2=O)cc1	1.86 µM	3.6 µM	3.07 µM	11.5 µM	11.5	23.6	1.7	3.25	6.18	18	15.1	28.4 µM	1.72 µM	3.36	4.41	16.2 µM	1.16 µM	2.94 µM	1.68 µM	3.05 µM
C=C1C(=O)O[C@H]2[C@H]1CC/C(COC(=O)C(=O)c1cn(C)c3ccc(OC)cc13)=C\CC[C@@]1(C)O[C@@H]21	2.42 µM	6.02 µM	3.83 µM	9.49 µM	4.97	25.8	7.25	21.8	4.96	8.94	3.18	7.79 µM	3.03 µM	8.89	4.03	7.56 µM	2.27 µM	6.01 µM	1.86 µM	3.42 µM
